ChEMBL document CHEMBL3991601, “The target landscape of clinical kinase drugs” (Science, 2017)
Activity calls are given as the source filed them. Cut-off read from the data, not from the text of the source, for most assays here: actives have a measured Kd and inactives only a lower limit.

Experiments:
[1] = target: T1, Serine/threonine-protein kinase TAO1 (Homo sapiens, UniProt Q7L7X3)
T1 sequence (Q7L7X3 whole entry): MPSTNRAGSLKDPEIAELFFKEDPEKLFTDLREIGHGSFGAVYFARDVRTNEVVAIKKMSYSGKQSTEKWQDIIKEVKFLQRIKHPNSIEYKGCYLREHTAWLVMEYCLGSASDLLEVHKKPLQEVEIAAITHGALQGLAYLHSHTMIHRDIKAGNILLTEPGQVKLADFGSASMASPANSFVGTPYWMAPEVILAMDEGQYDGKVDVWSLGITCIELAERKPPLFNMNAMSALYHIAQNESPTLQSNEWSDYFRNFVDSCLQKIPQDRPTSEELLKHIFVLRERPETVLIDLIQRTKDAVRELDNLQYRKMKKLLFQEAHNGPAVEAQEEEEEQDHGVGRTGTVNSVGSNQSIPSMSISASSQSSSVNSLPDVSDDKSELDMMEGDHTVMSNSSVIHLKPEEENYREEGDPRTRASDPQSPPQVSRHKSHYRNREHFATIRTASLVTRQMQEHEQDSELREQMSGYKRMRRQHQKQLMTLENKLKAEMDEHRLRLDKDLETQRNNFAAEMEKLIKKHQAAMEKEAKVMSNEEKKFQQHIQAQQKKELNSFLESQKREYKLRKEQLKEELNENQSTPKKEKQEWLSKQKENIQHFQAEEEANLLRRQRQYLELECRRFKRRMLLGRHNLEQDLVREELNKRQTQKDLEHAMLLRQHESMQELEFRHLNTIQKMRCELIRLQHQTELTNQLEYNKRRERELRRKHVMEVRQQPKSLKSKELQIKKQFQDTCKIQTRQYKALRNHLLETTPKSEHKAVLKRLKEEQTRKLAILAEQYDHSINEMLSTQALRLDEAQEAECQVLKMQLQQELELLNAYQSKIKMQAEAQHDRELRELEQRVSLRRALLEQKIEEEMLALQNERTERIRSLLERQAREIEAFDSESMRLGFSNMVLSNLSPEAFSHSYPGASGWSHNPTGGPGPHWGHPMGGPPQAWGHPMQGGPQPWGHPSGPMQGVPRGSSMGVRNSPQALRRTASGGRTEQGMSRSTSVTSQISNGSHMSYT

[2] = target: S-adenosylmethionine synthase isoform type-2 (Homo sapiens, UniProt P31153)
[3] = target: Elongation factor Tu, mitochondrial (Homo sapiens, UniProt P49411)
dCTP pyrophosphatase 1 = target: T2, dCTP pyrophosphatase 1 (Homo sapiens, UniProt Q9H773)
T2 sequence (Q9H773 whole entry): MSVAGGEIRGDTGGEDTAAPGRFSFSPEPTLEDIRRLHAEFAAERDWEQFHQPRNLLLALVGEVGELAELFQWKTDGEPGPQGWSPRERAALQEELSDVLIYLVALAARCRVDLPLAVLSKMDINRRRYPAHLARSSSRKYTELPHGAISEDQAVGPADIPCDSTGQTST

LIM domain kinase 2 = LIM domain kinase 2 (Homo sapiens, UniProt P53671)
[4] = target: Calcium/calmodulin-dependent protein kinase type II subunit delta (Homo sapiens, UniProt Q13557)
[5] = target: Ribosomal protein S6 kinase alpha-6 (Homo sapiens, UniProt Q9UK32)
[6] = target: T3, Mitogen-activated protein kinase kinase kinase 3 (Homo sapiens, UniProt Q99759)
T3 sequence (Q99759 whole entry): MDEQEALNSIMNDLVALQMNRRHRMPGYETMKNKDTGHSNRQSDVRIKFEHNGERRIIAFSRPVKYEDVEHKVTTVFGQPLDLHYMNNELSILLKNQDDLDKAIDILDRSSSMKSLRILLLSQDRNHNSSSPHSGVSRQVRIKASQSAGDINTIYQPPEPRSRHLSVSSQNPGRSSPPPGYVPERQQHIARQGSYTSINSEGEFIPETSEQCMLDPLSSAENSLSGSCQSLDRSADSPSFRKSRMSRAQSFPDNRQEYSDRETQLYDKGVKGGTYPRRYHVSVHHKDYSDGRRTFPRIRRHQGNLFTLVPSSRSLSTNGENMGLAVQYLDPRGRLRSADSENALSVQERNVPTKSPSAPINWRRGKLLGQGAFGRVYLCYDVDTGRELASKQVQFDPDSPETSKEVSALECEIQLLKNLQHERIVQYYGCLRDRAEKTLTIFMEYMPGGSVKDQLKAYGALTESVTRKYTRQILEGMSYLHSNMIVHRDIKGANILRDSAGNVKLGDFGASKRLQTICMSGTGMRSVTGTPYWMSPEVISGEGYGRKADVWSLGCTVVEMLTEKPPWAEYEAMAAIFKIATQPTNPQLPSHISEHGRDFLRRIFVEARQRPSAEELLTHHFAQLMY

[7] = target: T4, Serine/threonine-protein kinase D3 (Homo sapiens, UniProt O94806)
T4 sequence (O94806 whole entry): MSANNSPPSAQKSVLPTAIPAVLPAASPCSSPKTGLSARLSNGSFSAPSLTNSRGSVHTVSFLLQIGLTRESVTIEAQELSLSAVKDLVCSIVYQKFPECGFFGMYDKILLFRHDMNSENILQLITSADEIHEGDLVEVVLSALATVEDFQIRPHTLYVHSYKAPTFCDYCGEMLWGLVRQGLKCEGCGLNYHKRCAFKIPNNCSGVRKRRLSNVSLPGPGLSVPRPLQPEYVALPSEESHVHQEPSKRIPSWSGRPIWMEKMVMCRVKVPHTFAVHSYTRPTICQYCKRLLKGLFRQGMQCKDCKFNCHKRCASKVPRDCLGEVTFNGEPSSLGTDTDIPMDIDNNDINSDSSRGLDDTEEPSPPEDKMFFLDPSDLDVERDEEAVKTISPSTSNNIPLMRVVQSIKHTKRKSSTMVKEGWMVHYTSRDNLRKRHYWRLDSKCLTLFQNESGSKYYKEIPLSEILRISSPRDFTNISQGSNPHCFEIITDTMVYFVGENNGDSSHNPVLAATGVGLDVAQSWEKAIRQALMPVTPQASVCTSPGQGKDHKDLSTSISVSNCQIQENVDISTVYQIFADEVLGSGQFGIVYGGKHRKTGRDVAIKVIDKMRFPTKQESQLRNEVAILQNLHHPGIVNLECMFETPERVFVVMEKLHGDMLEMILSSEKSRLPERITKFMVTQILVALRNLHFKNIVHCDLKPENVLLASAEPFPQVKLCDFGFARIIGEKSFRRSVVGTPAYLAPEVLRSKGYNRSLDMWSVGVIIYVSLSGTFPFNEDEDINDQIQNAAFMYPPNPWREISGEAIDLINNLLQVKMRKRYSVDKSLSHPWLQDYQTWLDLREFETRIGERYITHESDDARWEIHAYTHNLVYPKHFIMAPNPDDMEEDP
Note: in the data inactive means no Kd found up to 30 µM.

Chain of Calcium/calmodulin-dependent protein kinase type II subunit delta (Q13557 whole entry): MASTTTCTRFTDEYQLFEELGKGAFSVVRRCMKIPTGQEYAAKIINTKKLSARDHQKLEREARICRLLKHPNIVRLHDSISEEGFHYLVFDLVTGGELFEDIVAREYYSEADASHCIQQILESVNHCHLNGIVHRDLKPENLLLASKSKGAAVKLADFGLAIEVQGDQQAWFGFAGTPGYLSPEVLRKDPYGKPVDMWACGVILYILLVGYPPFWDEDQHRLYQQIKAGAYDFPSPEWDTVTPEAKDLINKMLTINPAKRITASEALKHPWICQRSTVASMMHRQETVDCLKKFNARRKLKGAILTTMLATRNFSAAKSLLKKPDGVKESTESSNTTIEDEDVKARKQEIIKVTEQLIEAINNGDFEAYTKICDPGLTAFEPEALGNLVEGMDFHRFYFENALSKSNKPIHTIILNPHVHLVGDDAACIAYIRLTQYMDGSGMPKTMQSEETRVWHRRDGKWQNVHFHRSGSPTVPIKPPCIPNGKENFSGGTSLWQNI
Chain of LIM domain kinase 2 (P53671 whole entry, the tested form may be a part): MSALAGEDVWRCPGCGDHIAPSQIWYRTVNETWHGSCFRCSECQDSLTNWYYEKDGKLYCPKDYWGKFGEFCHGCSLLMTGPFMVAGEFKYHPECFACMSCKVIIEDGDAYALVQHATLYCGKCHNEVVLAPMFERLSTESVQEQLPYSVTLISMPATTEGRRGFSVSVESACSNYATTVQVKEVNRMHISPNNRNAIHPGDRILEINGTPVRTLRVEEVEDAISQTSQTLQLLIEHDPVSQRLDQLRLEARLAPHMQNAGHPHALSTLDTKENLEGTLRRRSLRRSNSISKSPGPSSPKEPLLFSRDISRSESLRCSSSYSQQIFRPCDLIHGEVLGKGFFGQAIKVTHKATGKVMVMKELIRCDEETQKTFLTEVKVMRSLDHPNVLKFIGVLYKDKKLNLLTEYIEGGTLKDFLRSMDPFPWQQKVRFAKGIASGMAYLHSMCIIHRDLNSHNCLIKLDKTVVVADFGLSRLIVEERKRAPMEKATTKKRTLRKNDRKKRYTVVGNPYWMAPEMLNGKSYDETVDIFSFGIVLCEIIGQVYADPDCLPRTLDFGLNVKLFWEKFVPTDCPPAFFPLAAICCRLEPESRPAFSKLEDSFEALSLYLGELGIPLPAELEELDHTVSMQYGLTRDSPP
Chain of Ribosomal protein S6 kinase alpha-6 (Q9UK32 whole entry): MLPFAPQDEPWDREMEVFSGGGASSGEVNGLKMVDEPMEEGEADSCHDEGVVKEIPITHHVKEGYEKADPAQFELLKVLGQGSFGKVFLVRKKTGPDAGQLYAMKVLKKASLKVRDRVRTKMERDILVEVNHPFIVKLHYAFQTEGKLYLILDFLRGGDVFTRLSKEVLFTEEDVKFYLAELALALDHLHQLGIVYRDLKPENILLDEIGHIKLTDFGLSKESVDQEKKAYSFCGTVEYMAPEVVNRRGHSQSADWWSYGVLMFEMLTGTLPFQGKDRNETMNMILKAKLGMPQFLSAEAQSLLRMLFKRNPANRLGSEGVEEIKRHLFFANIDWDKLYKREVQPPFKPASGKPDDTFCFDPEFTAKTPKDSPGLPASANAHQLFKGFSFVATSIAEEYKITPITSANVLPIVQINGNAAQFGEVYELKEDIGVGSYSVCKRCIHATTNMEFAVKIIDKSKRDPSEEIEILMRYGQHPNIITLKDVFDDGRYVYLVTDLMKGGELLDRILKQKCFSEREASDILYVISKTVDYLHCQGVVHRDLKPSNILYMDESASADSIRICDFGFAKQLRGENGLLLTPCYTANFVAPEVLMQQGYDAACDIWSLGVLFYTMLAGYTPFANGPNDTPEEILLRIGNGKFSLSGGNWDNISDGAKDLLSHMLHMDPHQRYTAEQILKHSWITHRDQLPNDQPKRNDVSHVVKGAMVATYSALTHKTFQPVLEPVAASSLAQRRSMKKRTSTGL
Chain of S-adenosylmethionine synthase isoform type-2 (P31153 whole entry, canonical isoform): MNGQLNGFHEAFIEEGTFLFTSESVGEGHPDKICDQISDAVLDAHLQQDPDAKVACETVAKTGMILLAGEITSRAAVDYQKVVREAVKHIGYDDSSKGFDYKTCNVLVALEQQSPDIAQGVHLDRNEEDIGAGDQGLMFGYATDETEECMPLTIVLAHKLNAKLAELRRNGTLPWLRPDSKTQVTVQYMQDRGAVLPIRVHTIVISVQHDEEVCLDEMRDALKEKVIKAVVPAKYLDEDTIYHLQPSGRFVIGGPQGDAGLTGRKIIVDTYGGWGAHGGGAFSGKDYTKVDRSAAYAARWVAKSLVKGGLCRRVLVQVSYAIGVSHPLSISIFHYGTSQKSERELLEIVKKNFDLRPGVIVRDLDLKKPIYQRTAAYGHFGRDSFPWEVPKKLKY

Row | Compound | Kd [1] | Kd [2] | Kd [3] | Kd (dCTP pyrophosphatase 1) | Kd (LIM domain kinase 2) | Kd [4] | Kd [5] | Kd [6] | Kd [7]
1 | C[C@@H](Oc1cc(C(=O)Nc2ccc(C(=O)N3CCN(C)CC3)cc2)nnc1N)c1c(Cl)ccc(F)c1Cl | > 30 µM (inactive) | > 30 µM (inactive) | > 30 µM (inactive) | > 30 µM (inactive) | > 30 µM (inactive) | > 30 µM (inactive) | > 30 µM (inactive) | > 30 µM (inactive) | > 30 µM (inactive)
2 | C[C@H]1CNCCCN1S(=O)(=O)c1cccc2cncc(F)c12 | > 30 µM (inactive) | > 30 µM (inactive) | > 30 µM (inactive) | > 30 µM (inactive) | > 30 µM (inactive) | > 30 µM (inactive) | > 30 µM (inactive) | > 30 µM (inactive) | > 30 µM (inactive)
3 | CC(=O)c1cnc2ccc(-c3cc(Cl)c(O)c(Cl)c3)nc2c1N[C@H]1CC[C@H](CN(C)C)CC1 | 0.017 µM (active) | > 30 µM (inactive) | > 30 µM (inactive) | > 30 µM (inactive) | > 30 µM (inactive) | > 30 µM (inactive) | 0.057 µM (active) | – | 0.093 µM (active)
4 | CCNC(=O)C#Cc1ccc2c(c1)NC(=O)/C2=C(\Nc1ccc(CN(C)C)cc1)c1ccccc1 | > 30 µM (inactive) | > 30 µM (inactive) | > 30 µM (inactive) | > 30 µM (inactive) | > 30 µM (inactive) | > 30 µM (inactive) | > 30 µM (inactive) | > 30 µM (inactive) | > 30 µM (inactive)
5 | C=CC(=O)N1CCC[C@H](n2c(=O)n(-c3ccc(Oc4ccccc4)cc3)c3c(N)ncnc32)C1 | > 30 µM (inactive) | > 30 µM (inactive) | > 30 µM (inactive) | > 30 µM (inactive) | > 30 µM (inactive) | > 30 µM (inactive) | > 30 µM (inactive) | > 30 µM (inactive) | > 30 µM (inactive)
6 | Cc1nc2cc(-c3nn(C(C)C)c4ncnc(N)c34)ccc2o1 | 1.09 µM (active) | > 30 µM (inactive) | > 30 µM (inactive) | > 30 µM (inactive) | > 30 µM (inactive) | > 30 µM (inactive) | > 30 µM (inactive) | > 30 µM (inactive) | > 30 µM (inactive)
7 | COCc1c(-c2ccc(NC(=O)Nc3cc(C(F)(F)F)ccc3F)c(F)c2)c2c(N)ncnn2c1CN1CCOCC1 | > 30 µM (inactive) | > 30 µM (inactive) | > 30 µM (inactive) | > 30 µM (inactive) | > 30 µM (inactive) | > 30 µM (inactive) | 2.69 µM (active) | > 30 µM (inactive) | > 30 µM (inactive)
8 | Cc1nc(NC(=O)N2CCC[C@H]2C(N)=O)sc1-c1ccnc(C(C)(C)C(F)(F)F)c1 [ALPELISIB] | > 30 µM (inactive) | > 30 µM (inactive) | > 30 µM (inactive) | > 30 µM (inactive) | > 30 µM (inactive) | > 30 µM (inactive) | > 30 µM (inactive) | > 30 µM (inactive) | > 30 µM (inactive)
9 | C=CC(=O)Nc1cc2c(Nc3ccc(F)c(Cl)c3)ncnc2cc1C#CC(C)(C)N1CCN(C)CC1 [AV-412 FREE BASE] | > 30 µM (inactive) | > 30 µM (inactive) | > 30 µM (inactive) | > 30 µM (inactive) | > 30 µM (inactive) | > 30 µM (inactive) | > 30 µM (inactive) | > 30 µM (inactive) | > 30 µM (inactive)
10 | COc1cc([C@@H]2c3cc4c(cc3[C@H](O)[C@H]3COC(=O)[C@@H]23)OCO4)cc(OC)c1OC [AXL-1717] | > 30 µM (inactive) | > 30 µM (inactive) | > 30 µM (inactive) | > 30 µM (inactive) | > 30 µM (inactive) | > 30 µM (inactive) | > 30 µM (inactive) | > 30 µM (inactive) | > 30 µM (inactive)
11 | Cn1cnc2c(F)c(Nc3ccc(Br)cc3F)c(C(=O)NOCCO)cc21 [BINIMETINIB] | > 30 µM (inactive) | > 30 µM (inactive) | > 30 µM (inactive) | > 30 µM (inactive) | > 30 µM (inactive) | > 30 µM (inactive) | > 30 µM (inactive) | > 30 µM (inactive) | > 30 µM (inactive)
12 | FC(F)(F)c1ccc(/C=C/c2nc(COc3ccc(CCCCn4ccnn4)cc3)co2)cc1 [MUBRITINIB] | > 30 µM (inactive) | – | > 30 µM (inactive) | > 30 µM (inactive) | > 30 µM (inactive) | > 30 µM (inactive) | > 30 µM (inactive) | > 30 µM (inactive) | > 30 µM (inactive)
13 | CNC(=O)c1cc(Oc2ccc(NC(=O)Nc3cc(C(C)(C)C)nn3-c3ccc4ncccc4c3)c(F)c2)ccn1 [REBASTINIB] | > 30 µM (inactive) | – | > 30 µM (inactive) | > 30 µM (inactive) | 3.5 µM (active) | > 30 µM (inactive) | > 30 µM (inactive) | > 30 µM (inactive) | > 30 µM (inactive)
14 | CO[C@H]1C[C@@H]2CC[C@@H](C)[C@@](O)(O2)C(=O)C(=O)N2CCCC[C@H]2C(=O)O[C@H]([C@H](C)C[C@@H]2CC[C@@H](OP(C)(C)=O)[C@H](OC)C2)CC(=O)[C@H](C)/C=C(\C)[C@@H](O)[C@@H](OC)C(=O)[C@H](C)C[C@H](C)/C=C/C=C/C=C/1C [RIDAFOROLIMUS] | > 30 µM (inactive) | – | > 30 µM (inactive) | > 30 µM (inactive) | > 30 µM (inactive) | > 30 µM (inactive) | > 30 µM (inactive) | > 30 µM (inactive) | > 30 µM (inactive)
